This note sets out measurements from patent US20230257372A1 (CHONG KUN DANG PHARMACEUTICAL CORP., priority 2020, published 2023).

One assay deals with T1, human recombinant HDAC6 (Homo sapiens, UniProt Q9UBN7).
T1 construct: purchased Calbiochem Inc. 382180
T1 sequence (Q9UBN7 1-1215): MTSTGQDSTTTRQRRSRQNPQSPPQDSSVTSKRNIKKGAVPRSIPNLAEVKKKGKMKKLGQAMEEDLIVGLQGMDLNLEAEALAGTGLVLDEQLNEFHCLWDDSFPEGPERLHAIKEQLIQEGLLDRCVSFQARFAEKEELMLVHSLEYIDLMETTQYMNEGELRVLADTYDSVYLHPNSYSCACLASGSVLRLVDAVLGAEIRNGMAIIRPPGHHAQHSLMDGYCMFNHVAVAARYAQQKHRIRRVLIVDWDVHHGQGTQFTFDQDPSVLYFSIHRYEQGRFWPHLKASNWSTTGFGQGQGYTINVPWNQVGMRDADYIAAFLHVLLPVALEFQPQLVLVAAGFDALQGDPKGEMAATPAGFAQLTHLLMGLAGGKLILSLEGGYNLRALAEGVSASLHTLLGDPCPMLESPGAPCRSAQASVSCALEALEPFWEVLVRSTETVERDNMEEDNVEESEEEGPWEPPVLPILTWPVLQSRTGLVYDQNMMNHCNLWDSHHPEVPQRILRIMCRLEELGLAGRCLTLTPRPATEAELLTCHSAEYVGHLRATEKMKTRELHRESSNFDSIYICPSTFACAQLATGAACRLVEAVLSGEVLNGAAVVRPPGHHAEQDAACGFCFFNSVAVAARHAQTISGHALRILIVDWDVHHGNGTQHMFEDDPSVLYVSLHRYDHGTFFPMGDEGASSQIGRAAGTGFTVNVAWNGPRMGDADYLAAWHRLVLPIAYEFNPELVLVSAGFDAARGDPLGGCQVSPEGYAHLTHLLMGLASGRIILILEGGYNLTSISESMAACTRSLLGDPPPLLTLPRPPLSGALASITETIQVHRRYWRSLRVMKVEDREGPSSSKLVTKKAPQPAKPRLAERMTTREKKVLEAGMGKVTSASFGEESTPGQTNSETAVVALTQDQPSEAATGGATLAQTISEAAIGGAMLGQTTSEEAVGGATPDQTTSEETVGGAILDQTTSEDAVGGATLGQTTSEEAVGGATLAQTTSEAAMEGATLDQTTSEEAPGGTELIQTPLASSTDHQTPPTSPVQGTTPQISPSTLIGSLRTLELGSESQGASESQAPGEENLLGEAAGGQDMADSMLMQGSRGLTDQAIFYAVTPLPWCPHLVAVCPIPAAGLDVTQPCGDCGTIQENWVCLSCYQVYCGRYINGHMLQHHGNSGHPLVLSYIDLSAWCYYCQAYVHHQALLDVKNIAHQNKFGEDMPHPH
Put plainly: HDAC6 enzyme activity inhibition (HDAC Fluorimetric Drug Discovery Kit). The format is biochemical. As to conditions: for HDAC6 selectivity (fold): HDAC6 over HDAC1; for IC50: human recombinant HDAC6, same protocol as HDAC1. The procedure, abridged: (§1)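 Compounds in 5-fold dilution series were incubated with […] enzyme and 10 μM substrate at 30° C for 60 minutes. Fluor de Lys Developer II was then added for 30 minutes to stop the reaction and develop the fluorescent signal.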

The target of a further assay is T2, human recombinant HDAC1 (Homo sapiens, UniProt Q13547).
T2 construct: purchased Enzo Life Science, Inc. BML-SE456
Put plainly: HDAC1 enzyme activity inhibition (HDAC Fluorimetric Drug Discovery Kit). The settings on record: human recombinant HDAC1, Fluor de Lys substrate, 30° C. 60 minutes; read-out: HDAC1. The format is biochemical. The procedure, abridged:
as §1

The structures appear in SMILES notation.

T2 sequence (Q13547 whole entry): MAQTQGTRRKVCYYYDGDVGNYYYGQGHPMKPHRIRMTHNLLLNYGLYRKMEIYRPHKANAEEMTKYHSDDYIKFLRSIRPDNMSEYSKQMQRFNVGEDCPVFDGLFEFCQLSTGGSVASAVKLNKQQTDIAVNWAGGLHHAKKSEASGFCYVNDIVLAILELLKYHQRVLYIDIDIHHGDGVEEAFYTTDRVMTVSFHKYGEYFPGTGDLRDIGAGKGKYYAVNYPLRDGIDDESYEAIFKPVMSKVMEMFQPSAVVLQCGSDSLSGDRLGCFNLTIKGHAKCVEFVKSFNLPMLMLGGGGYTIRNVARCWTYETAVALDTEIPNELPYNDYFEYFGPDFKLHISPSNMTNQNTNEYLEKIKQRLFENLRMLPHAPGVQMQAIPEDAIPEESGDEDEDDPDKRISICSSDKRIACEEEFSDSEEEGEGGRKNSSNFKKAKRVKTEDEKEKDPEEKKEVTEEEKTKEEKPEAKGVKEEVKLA

With `CCN1CC(c2cccc(-c3cn(Cc4ccc(-c5nnc(C(F)F)o5)cn4)nn3)c2)C1` [Compound 4502, 2-(difluoromethyl)-5-(6-((4-(3-(1-ethylazetidin-3-yl)phenyl)-1H-1,2,3-triazol-1-yl)methyl)pyridin-3-yl)-1,3,4-oxadiazole], at human recombinant HDAC6, the “HDAC6 selectivity (fold)” value is listed as 3571 fold and the IC50 worked out at 0.0142 µM. In addition, the IC50 on human recombinant HDAC1 is > 50 µM.
As for `CC(C)N1CC(c2cccc(-c3cn(Cc4ccc(-c5nnc(C(F)F)o5)cn4)nn3)c2)C1` [Compound 4503, 2-(difluoromethyl)-5-(6-((4-(3-(1-isopropylazetidin-3-yl)phenyl)-1H-1,2,3-triazol-1-yl)methyl)pyridin-3-yl)-1,3,4-oxadiazole], at human recombinant HDAC6, the “HDAC6 selectivity (fold)” value was 4672 fold and the IC50 turned out to be 0.0107 µM. Besides, the IC50 at human recombinant HDAC1 was > 50 µM.
The matching figures for `FC(F)c1nnc(-c2ccc(Cn3cc(-c4cccc(C5CN(C6CCC6)C5)c4)nn3)nc2)o1` [Compound 4504, 2-(6-((4-(3-(1-cyclobutylazetidin-3-yl)phenyl)-1H-1,2,3-triazol-1-yl)methyl)pyridin-3-yl)-5-(difluoromethyl)-1,3,4-oxadiazole]: 3703 fold, 0.0135 µM and > 50 µM.
The matching figures for `FC(F)c1nnc(-c2ccc(Cn3cc(-c4cccc(C5CN(C6COC6)C5)c4)nn3)nc2)o1` [Compound 4505, 2-(difluoromethyl)-5-(6-((4-(3-(1-(oxetan-3-yl)azetidin-3-yl)phenyl)-1H-1,2,3-triazol-1-yl)methyl)pyridin-3-yl)-1,3,4-oxadiazole]: 2032 fold, 0.0246 µM and > 50 µM.
The matching figures for `CCN1CC(c2cccc(-c3cn(Cc4ccc(-c5nnc(C(F)F)o5)cc4F)nn3)c2)C1` [Compound 4506, 2-(difluoromethyl)-5-(4-((4-(3-(1-ethylazetidin-3-yl)phenyl)-1H-1,2,3-triazol-1-yl)methyl)-3-fluorophenyl)-1,3,4-oxadiazole]: 2262 fold, 0.0221 µM and > 50 µM.
Consider `Fc1cc(-c2nnc(C(F)F)o2)ccc1Cn1cc(-c2cccc(C3CN(C4CCC4)C3)c2)nn1` [Compound 4507], for which the “HDAC6 selectivity (fold)” value on human recombinant HDAC6 is listed as 1779 fold. Further, the IC50 is 0.0281 µM on human recombinant HDAC6 and > 50 µM at human recombinant HDAC1.
The matching figures for `CCN1CC(c2cccc(-c3cn(Cc4ccc(-c5nnc(C(F)F)o5)cc4)nn3)c2)C1` [Compound 4508, 2-(difluoromethyl)-5-(4-((4-(3-(1-ethylazetidin-3-yl)phenyl)-1H-1,2,3-triazol-1-yl)methyl)phenyl)-1,3,4-oxadiazole]: 1381 fold, 0.0362 µM and > 50 µM.
As to `CC(C)N1CC(c2cccc(-c3cn(Cc4ccc(-c5nnc(C(F)F)o5)cc4)nn3)c2)C1` [Compound 4509, 2-(difluoromethyl)-5-(4-((4-(3-(1-isopropylazetidin-3-yl)phenyl)-1H-1,2,3-triazol-1-yl)methyl)phenyl)-1,3,4-oxadiazole], at human recombinant HDAC6, the “HDAC6 selectivity (fold)” value was determined as 2392 fold and the IC50 was found to be 0.0209 µM. Moreover, the IC50 on human recombinant HDAC1 was > 50 µM.
On to `FC(F)c1nnc(-c2ccc(Cn3cc(-c4cccc(C5CN(C6CCC6)C5)c4)nn3)cc2)o1` [Compound 4510, 2-(4-((4-(3-(1-cyclobutylazetidin-3-yl)phenyl)-1H-1,2,3-triazol-1-yl)methyl)phenyl)-5-(difluoromethyl)-1,3,4-oxadiazole], for which, at human recombinant HDAC6, the “HDAC6 selectivity (fold)” value is 2173 fold and the IC50 turned out to be 0.023 µM. The IC50 at human recombinant HDAC1 was > 50 µM.
For `FC(F)c1nnc(-c2ccc(Cn3cc(-c4cccc(C5CN(C6COC6)C5)c4)nn3)cc2)o1` [Compound 4511, 2-(difluoromethyl)-5-(4-((4-(3-(1-(oxetan-3-yl)azetidin-3-yl)phenyl)-1H-1,2,3-triazol-1-yl)methyl)phenyl)-1,3,4-oxadiazole] the same measures were 325 fold, 0.0642 µM and > 50 µM.
The matching figures for `CN1Cc2ccc(-c3cn(Cc4ccc(-c5nnc(C(F)F)o5)cc4)nn3)cc2C1` [Compound 4513, 2-(difluoromethyl)-5-(4-((4-(2-methylisoindolin-5-yl)-1H-1,2,3-triazol-1-yl)methyl)phenyl)-1,3,4-oxadiazole]: 495 fold, 0.101 µM and > 50 µM.
For `CN1Cc2ccc(-c3cn(Cc4ccc(-c5nnc(C(F)F)o5)cc4F)nn3)cc2C1` [Compound 4515, 2-(difluoromethyl)-5-(3-fluoro-4-((4-(2-methylisoindolin-5-yl)-1H-1,2,3-triazol-1-yl)methyl)phenyl)-1,3,4-oxadiazole] the same measures were 900 fold, 0.0555 µM and > 50 µM.
Take `CCN1Cc2ccc(-c3cn(Cc4ccc(-c5nnc(C(F)F)o5)cc4F)nn3)cc2C1` [Compound 4516, 2-(difluoromethyl)-5-(4-((4-(2-ethylisoindolin-5-yl)-1H-1,2,3-triazol-1-yl)methyl)-3-fluorophenyl)-1,3,4-oxadiazole]: the “HDAC6 selectivity (fold)” value on human recombinant HDAC6 came to 680 fold. Besides, the figures for the IC50 at human recombinant HDAC6 and on human recombinant HDAC1 were 0.0735 µM and > 50 µM, respectively.
The matching figures for `Fc1cc(-c2nnc(C(F)F)o2)ccc1Cn1cc(-c2ccc3c(c2)CN(C2CCC2)C3)nn1` [Compound 4518, 2-(4-((4-(2-cyclobutylisoindolin-5-yl)-1H-1,2,3-triazol-1-yl)methyl)-3-fluorophenyl)-5-(difluoromethyl)-1,3,4-oxadiazole]: 986 fold, 0.0507 µM and > 50 µM.
For `Fc1cc(-c2nnc(C(F)F)o2)ccc1Cn1cc(-c2ccc3c(c2)CN(C2COC2)C3)nn1` [Compound 4519, 2-(difluoromethyl)-5-(3-fluoro-4-((4-(2-(oxetan-3-yl)isoindolin-5-yl)-1H-1,2,3-triazol-1-yl)methyl)phenyl)-1,3,4-oxadiazole] the same measures were 994 fold, 0.0503 µM and > 50 µM.
The matching figures for `Fc1cc(-c2nnc(C(F)F)o2)ccc1Cn1cc(-c2ccc(CN3CCCC3)cc2)nn1` [Compound 4521, 2-(difluoromethyl)-5-(3-fluoro-4-((4-(4-(pyrrolidin-1-ylmethyl)phenyl)-1H-1,2,3-triazol-1-yl)methyl)phenyl)-1,3,4-oxadiazole]: 4464 fold, 0.0112 µM and > 50 µM.
With `Fc1cc(-c2nnc(C(F)F)o2)ccc1Cn1cc(-c2ccc(CN3CC4(COC4)C3)cc2)nn1` [Compound 4523, 6-(4-(1-(4-(5-(difluoromethyl)-1,3,4-oxadiazol-2-yl)-2-fluorobenzyl)-1H-1,2,3-triazol-4-yl)benzyl)-2-oxa-6-azaspiro[3.3]heptane], the “HDAC6 selectivity (fold)” value on human recombinant HDAC6 is on record as 4504 fold. In addition, the IC50 on human recombinant HDAC6 is 0.0111 µM; on human recombinant HDAC1, > 50 µM.
Regarding `Fc1cc(-c2nnc(C(F)F)o2)ccc1Cn1cc(-c2cnc3[nH]ccc3c2)nn1` [Compound 4524, 2-(4-((4-(1H-pyrrolo[2,3-b]pyridin-5-yl)-1H-1,2,3-triazol-1-yl)methyl)-3-fluorophenyl)-5-(difluoromethyl)-1,3,4-oxadiazole], at human recombinant HDAC6, the “HDAC6 selectivity (fold)” value was 6024 fold and the IC50 came out at 0.0083 µM. In addition, on human recombinant HDAC1, the IC50 was > 50 µM.
For `FC(F)c1nnc(-c2ccc(Cn3cc(-c4cnc5[nH]ccc5c4)nn3)cc2)o1` [Compound 4525, 2-(4-((4-(1H-pyrrolo[2,3-b]pyridin-5-yl)-1H-1,2,3-triazol-1-yl)methyl)phenyl)-5-(difluoromethyl)-1,3,4-oxadiazole] the same measures were 5681 fold, 0.0088 µM and > 50 µM.
